# Reference: patent publication US10752598B2, “Aryldiazepine derivatives as RSV inhibitors” (Enanta Pharmaceuticals, Inc., priority 2017, dated 2020)
# Test system: Human RSV-A (“Long” strain)
# Experiment: RSV-A in vitro cytoprotection (CPE) assay in HEp-2 cells, ATPlite readout
# Assay type: cell-based
# Conditions: human respiratory syncytial virus, 96 h, 4-day incubation, ATPlite cell viability
# Text: RSV is a single stranded negative sense RNA virus that causes respiratory tract infections which can be dangerous to infants, the elderly, and immunosuppressed individuals. Currently there is no vaccine, and therapeutic options are both costly and of limited effectiveness. These approved treatments are Ribavirin, and Palivizumab/Synagis (a monoclonal antibody). RSV has two genotypes, A and B, which differ primarily in the structure of the virus' surface “G” attachment protein. Our current primary screen focusses on RSV-A and uses an in vitro cytoprotection assay where compounds are added in 2-fold dilutions to cells which are then subjected to fully replicative viral particles. Cell viability is measured several days later along with separate measurements of compound cytotoxicity. This report focuses on the results of our most recent screening of compounds.
# HEp-2 cells, (originally derived from tumors grown in irradiated-cortisonised weanling rats that had been injected with epidermoid carcinoma tissue from a person's larynx, but later found to be indistinguishable from HeLa cells by PCR DNA analysis), were used for the culturing of genotype A, “Long” strain RSV. Flasks were inoculated with RSV and viral stocks were collected once cytopathic effect (CPE) was greater than 90%. Viral stocks in 25% sucrose media were snap frozen using liquid nitrogen to increase viral stability. Viral stock titers were quantified by tissue culture infectious dose 50% (TCID50) using 8,000 cells per well and 3-fold viral dilutions across a 96-well plate, cultured for 4 days.
# Following extensive parameter testing, the final assay is run as follows: HEp-2 cells are seeded into the inner 60 wells of a 96-well plate at 8,000 cells per well in a volume of […] Growth Media (DMEM without phenol red, 1% L-Glut, 1% Penn/Strep, 1% nonessential amino acids, 10% FBS). 2-fold serial dilutions of control and test compounds are added to the wells in duplicate in a total volume of 25 μL. Viral stock is then added to the wells in a volume of 25 μL, bringing the total volume of each well to 100 μL. Each 96-well plate has a control column of 6 wells with cells and virus but no compound (negative control, max CPE), a column with cells but no compound or virus (positive control, minimum CPE), and a column with no cells or virus or compound (background plate/reagent control). The control wells with cells but no virus are given an additional 25 uL of growth media containing an equal quantity of sucrose as those wells receiving the viral stock in order to keep consistent in media and volume conditions. The outer wells of the plate are filled with 125 μL of growth media to act as a thermal and evaporative moat around the test wells. Following a 4-day incubation period, the plates are read using ATPlite (50 uL added per well), which quantifies the amount of ATP (a measure of cell health) present in each well. Assay plates are read using the Envision luminometer. […] EC50 ranges are as follows: A<2 μM; B 2-5 μM; C>5 μM.
row,SMILES,EC50
1,"O=C1Nc2ccccc2N(c2ccccc2)C[C@@H]1Nc1nnc(-c2ccccc2)o1 [Example 1, (S)-5-phenyl-3-((5-phenyl-1,3,4-oxadiazol-2-yl)amino)-1,3,4,5-tetrahydro-2H-benzo[b][1,4]diazepin-2-one]",> 5 µM
2,"O=C1Nc2ccccc2N(c2ccccc2)C[C@@H]1Nc1nc2ccccc2o1 [Example 2, (S)-3-(benzo[d]oxazol-2-ylamino)-5-phenyl-1,3,4,5-tetrahydro-2H-benzo[b][1,4]diazepin-2-one]",> 5 µM
3,O=C(Nc1ccccc1)N[C@H]1CN(c2ccccc2)c2ccccc2NC1=O [Example 3],> 5 µM
4,"O=C(N[C@H]1CN(c2ccccc2)c2ccccc2NC1=O)c1ccccc1 [Example 4, (S)—N-(4-oxo-1-phenyl-2,3,4,5-tetrahydro-1H-benzo[b][1,4]diazepin-3-yl)benzamide]",> 5 µM
5,"O=C1Nc2ccccc2N(c2ccccc2)C[C@@H]1Nc1nnc(-c2ncc(C(F)(F)F)cc2N2CCOCC2)o1 [Example 5, (S)-3-((5-(3-morpholino-5-(trifluoromethyl)pyridin-2-yl)-1,3,4-oxadiazol-2-yl)amino)-5-phenyl-1,3,4,5-tetrahydro-2H-benzo[b][1,4]diazepin-2-one]",< 2 µM
6,O=C1Nc2ccccc2N(c2ccccc2)C[C@@H]1Nc1nnc(-c2cccnc2N2CCOCC2)o1 [Example 6],2 to 5 µM
7,O=C1Nc2ccccc2N(c2ccccc2)C[C@@H]1Nc1nnc(-c2ncc(C3CC3)cc2N2CCOCC2)o1 [Example 7],< 2 µM
8,COCCNc1cc(C(F)(F)F)cnc1-c1nnc(N[C@H]2CN(c3ccccc3)c3ccccc3NC2=O)o1 [Example 8],> 5 µM
9,Cc1ccc(-c2nnc(N[C@H]3CN(c4ccccc4)c4ccccc4NC3=O)o2)o1 [Example 9],> 5 µM
10,O=C1Nc2ccccc2N(c2ccccc2)C[C@@H]1Nc1nnc(-c2cn(C3CCCC3)nc2N2CCOCC2)o1 [Example 10],< 2 µM
11,O=C1Nc2ccccc2N(c2ccccc2)C[C@@H]1Nc1nnc(-c2ccc(F)cc2)o1 [Example 11],> 5 µM
12,O=C1Nc2ccccc2N(c2ccccc2)C[C@@H]1Nc1nnc(-c2ccc(N3CCOCC3)cc2F)o1 [Example 12],> 5 µM
13,O=C1Nc2ccccc2N(c2ccccc2)C[C@@H]1Nc1nnc(-c2cn(-c3ccccn3)nc2N2CCOCC2)o1 [Example 13],2 to 5 µM
14,"O=C1Nc2ccccc2N(c2ccccc2)C[C@@H]1Nc1nnc(-c2nc(C(F)(F)F)sc2N2CCOCC2)o1 [Example 14, (S)-3-((5-(5-morpholino-2-(trifluoromethyl)thiazol-4-yl)-1,3,4-oxadiazol-2-yl)amino)-5-phenyl-1,3,4,5-tetrahydro-2H-benzo[b][1,4]diazepin-2-one]",< 2 µM
15,O=C1Nc2ccccc2N(c2ccccc2)C[C@@H]1Nc1nnc(-c2nc(C3CC3)sc2N2CCOCC2)o1 [Example 15],< 2 µM
16,O=C1Nc2ccccc2N(c2ccccc2)C[C@@H]1Nc1nnc(-c2nc(-c3cccnc3)sc2N2CCOCC2)o1 [Example 16],< 2 µM
17,O=C1Nc2ccccc2N(c2cc(F)c(F)c(F)c2)C[C@@H]1Nc1nnc(-c2ncc(C(F)(F)F)cc2N2CCOCC2)o1 [Example 17],> 5 µM
18,O=C1Nc2ccccc2N(c2ccccc2)C(=O)C1Nc1nnc(-c2ccccc2)o1 (centres unmarked) [Example 19],> 5 µM
19,O=C(Nc1ccccc1)NC1C(=O)Nc2ccccc2N(c2ccccc2)C1=O (centres unmarked) [Example 20],> 5 µM
20,O=C(NC1C(=O)Nc2ccccc2N(c2ccccc2)C1=O)c1ccccc1 (centres unmarked) [Example 21],> 5 µM
